According to patent US5362630A, “Isolation of pseudomonas salicylate hydroxlase and its use for the identification and quantitation of salicylate in body fluids” (Duke University, priority 1992, dated 1994):

Key:
salicylate hydroxylase [1] = conditions: cited from earlier work; for product inhibition of the enzyme: found by White-Stevens and Kamin
salicylate hydroxylase [2] = assay: Salicylate hydroxylase enzyme assay (NAD(P)H oxidation at 340 nm); type: biochemical, Pseudomonas
Description: Generally the reaction is carried out in a buffered solution (unless pH change or CO2 evolution is being measured). The buffer should offer near physiological conditions of pH and ionic strength for the enzyme. A potassium phosphate buffer, pH 7.6, at a concentration of 20 mM is preferred, although any pH from 6.5 to 8.9 and concentration from 5 to 100 mM is adequate. The sample may be added in any amount sufficient to trigger enzyme activity (if the salicylate is present in the sample) and the choice of sample size is discussed fully at a later time. From 1 to 40 μl per ml of total volume is convenient. Since the enzyme is generally available as a solution, it is conveniently added as such. About 10 μl of an enzyme solution containing 0.01 to 1 IU/ml is sufficient for most conditions, although the amount may be increased to speed up the reaction or decreased to slow the reaction down as needed. One IU (International Unit) is the amount of enzyme required to catalyze the disappearance of one μmole of NADH/min. NADH (or NADPH) may be present in a concentration of from about 10 to about 290 μM. Since the concentration of O2 in aqueous media is between 0.20 mM and 0.30 mM, it is not necessary to keep NAD(P)H concentration higher than […].
Enzyme Assay. The assay procedure for the enzyme and the definition of the enzyme were the same as that described in White-Stevens and Kamin (1970) except that EDTA and FAD were excluded in the assay mixture of the present work. The extinction coefficient of 6.22×10^3 M^-1 cm^-1 was used to convert the A340 change to micromoles of NADH oxidized.

[3] = cited from earlier work

Row | Molecule | inhibition of / interference with the enzyme activity (salicylate hydroxylase [2]) | further results
1 | Oc1ccccc1O [catechol] |  | product inhibition of the enzyme (salicylate hydroxylase [1]): no product inhibition
2 | CC(=O)Nc1ccc(O)cc1 [acetaminophen] | do not interfere | 
3 | NAD(P)^+ |  | product inhibition of the enzyme (salicylate hydroxylase [1]): no product inhibition
4 | O=C(O)CC(O)(CC(=O)O)C(=O)O [citrate] | do not inhibit | 
5 | O=C(O)C(=O)O [oxalate] | do not inhibit | 
6 | CC(=O)Oc1ccccc1C(=O)O [aspirin, acetylsalicylic acid] |  | overdose serum/plasma level (serious poison, coma and death) [3]: over 45 mg/dl
7 | O=C(O)c1ccccc1O [salicylate] |  | therapeutic range, serum or plasma level [3]: 5 to 40 mg/dL
8 | heparin | no effect | 
9 | O=C(O)c1ccccc1 [benzoate] |  | Km (salicylate hydroxylase [1]; substrate or pseudosubstrate of salicylate hydroxylase, read-out: Km of the enzyme): 2000 µM
10 | O=C(O)CN(CCN(CC(=O)O)CC(=O)O)CC(=O)O [EDTA, ethylenediaminetetracetic acid] | do not inhibit | 
